Test results published in article PMC4620681 (Bioorganic & medicinal chemistry letters, 2015).

Legend:
hKOR = hKOR (Homo sapiens, UniProt P41145); assay: biochemical; format: biochemical; settings: for Emax at 1 µM: read-out: Emax at 1 μM (percentage of maximal response to U50,488H); for Emax: read-out: Emax (percentage of maximal response to U50,488H)
human KOR (hKOR) = human KOR (hKOR) (Homo sapiens, UniProt P41145); settings: cited from earlier work
Sequence of human KOR (hKOR) (P41145 whole entry): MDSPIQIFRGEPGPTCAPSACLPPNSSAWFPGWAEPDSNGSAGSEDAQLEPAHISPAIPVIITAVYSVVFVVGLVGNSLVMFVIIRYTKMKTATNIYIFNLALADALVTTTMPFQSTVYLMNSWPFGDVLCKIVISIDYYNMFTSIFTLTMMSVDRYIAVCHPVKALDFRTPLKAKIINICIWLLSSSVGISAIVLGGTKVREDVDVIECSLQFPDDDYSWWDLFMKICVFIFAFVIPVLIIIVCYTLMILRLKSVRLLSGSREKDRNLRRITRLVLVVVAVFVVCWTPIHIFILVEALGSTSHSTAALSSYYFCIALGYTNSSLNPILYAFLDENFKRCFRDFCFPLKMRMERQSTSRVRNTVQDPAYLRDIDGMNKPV

Sequence of hKOR (P41145 whole entry): as above

Compound	Emax at 1 µM (hKOR)	also measured
C=CC[C@]1(COC)C[C@@H](C(=O)OC)[C@]2(C)CC[C@H]3C(=O)O[C@H](c4ccoc4)C[C@]3(C)[C@H]2C1=O [Compound 12a]	99%	
COC[C@@]1(C)C[C@@H](C(=O)OC)[C@]2(C)CC[C@H]3C(=O)O[C@H](c4ccoc4)C[C@]3(C)[C@H]2C1=O [Compound 9a, 2-methyl-2-methoxymethyl-salvinorin ether]		agonist / antagonist activity at KOR (hKOR): potent full agonist; Emax (hKOR): 123 ± 16%
COC[C@@]1(C)C[C@@H](C(=O)OC)[C@]2(C)CC[C@@H]3C(=O)O[C@H](c4ccoc4)C[C@]3(C)[C@H]2C1=O [Compound 9b]		Emax (hKOR): 103 ± 16%
CC[C@]1(COC)C[C@@H](C(=O)OC)[C@]2(C)CC[C@H]3C(=O)O[C@H](c4ccoc4)C[C@]3(C)[C@H]2C1=O [Compound 10a]	83%	
COC[C@@]1(CCOCCI)C[C@@H](C(=O)OC)[C@]2(C)CC[C@H]3C(=O)O[C@H](c4ccoc4)C[C@]3(C)[C@H]2C1=O [Compound 14a]	98%	
C=CC[C@]1(COC)C[C@@H](C(=O)OC)[C@]2(C)CC[C@@H]3C(=O)O[C@H](c4ccoc4)C[C@]3(C)[C@H]2C1=O [Compound 12b]	84%	
CC[C@]1(COC)C[C@@H](C(=O)OC)[C@]2(C)CC[C@@H]3C(=O)O[C@H](c4ccoc4)C[C@]3(C)[C@H]2C1=O [Compound 10b]	81%	
COC[C@@]1(CCOCCI)C[C@@H](C(=O)OC)[C@]2(C)CC[C@@H]3C(=O)O[C@H](c4ccoc4)C[C@]3(C)[C@H]2C1=O [Compound 14b]	85%	
COC(=O)[C@@H]1C[C@H](O)C(=O)[C@H]2[C@@]1(C)CC[C@H]1C(=O)O[C@H](c3ccoc3)C[C@]21C [Compound 2, Salvinorin B]		affinity to KOR (in words) (human KOR (hKOR)): comparatively much lower affinity; fold lower affinity than its epimer (human KOR (hKOR)): 3 fold
